Measurements: ChEMBL document CHEMBL6083286, “Discovery of ERD-12310A as an Exceptionally Potent and Orally Efficacious PROTAC Degrader of Estrogen Receptor α (ERα)” (J Med Chem, 2024)
The source made the active and inactive calls. The rule behind the calls is not given here.

Columns and labels:
[1] = Volume of distribution at steady state in mouse at 3 mg/kg, po or 1 mg/kg, iv measured upto 24 hrs by LC-MS/MS analysis; assay type: ADME, organism-based; conditions: in vivo
[2] = biological target: T1, Voltage-gated inwardly rectifying potassium channel KCNH2 (Homo sapiens, UniProt Q12809); test: Inhibition of hERG in HEK293 cells by whole-cell patch clamp assay; assay type: toxicity, cell-based
T1 sequence (Q12809 whole entry): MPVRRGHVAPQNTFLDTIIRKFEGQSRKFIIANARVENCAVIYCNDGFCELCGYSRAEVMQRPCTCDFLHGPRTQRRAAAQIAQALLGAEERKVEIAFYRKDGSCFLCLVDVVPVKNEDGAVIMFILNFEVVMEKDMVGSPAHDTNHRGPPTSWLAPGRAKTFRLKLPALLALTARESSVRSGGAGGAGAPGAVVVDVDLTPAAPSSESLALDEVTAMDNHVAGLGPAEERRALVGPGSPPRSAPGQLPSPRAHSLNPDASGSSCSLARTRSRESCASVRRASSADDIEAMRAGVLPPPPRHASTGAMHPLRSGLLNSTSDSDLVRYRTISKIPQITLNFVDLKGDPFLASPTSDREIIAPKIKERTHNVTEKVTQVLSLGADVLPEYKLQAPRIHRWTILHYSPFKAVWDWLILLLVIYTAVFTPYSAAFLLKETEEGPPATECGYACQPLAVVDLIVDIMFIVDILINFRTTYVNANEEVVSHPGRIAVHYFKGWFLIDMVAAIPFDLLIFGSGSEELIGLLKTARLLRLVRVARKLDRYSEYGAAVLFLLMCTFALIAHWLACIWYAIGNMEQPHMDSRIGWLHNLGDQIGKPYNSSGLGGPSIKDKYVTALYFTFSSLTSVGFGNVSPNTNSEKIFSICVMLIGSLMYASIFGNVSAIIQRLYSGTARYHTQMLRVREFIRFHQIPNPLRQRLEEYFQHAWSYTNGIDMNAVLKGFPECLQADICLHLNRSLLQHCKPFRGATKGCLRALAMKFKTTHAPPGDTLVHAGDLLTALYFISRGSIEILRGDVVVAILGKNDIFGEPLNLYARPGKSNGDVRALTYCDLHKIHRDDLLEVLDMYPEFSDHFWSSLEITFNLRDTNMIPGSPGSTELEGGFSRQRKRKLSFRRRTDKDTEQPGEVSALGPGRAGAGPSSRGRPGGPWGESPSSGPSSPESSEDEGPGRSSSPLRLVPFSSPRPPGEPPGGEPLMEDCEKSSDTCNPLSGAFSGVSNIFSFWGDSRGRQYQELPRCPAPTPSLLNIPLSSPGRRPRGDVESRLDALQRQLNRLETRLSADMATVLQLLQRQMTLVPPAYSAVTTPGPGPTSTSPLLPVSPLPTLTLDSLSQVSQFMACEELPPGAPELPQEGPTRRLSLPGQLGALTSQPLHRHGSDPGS

[3] = Cmax in rat at 3 mg/kg, po or 1 mg/kg, iv measured upto 24 hrs by LC-MS/MS analysis; assay type: ADME, organism-based; conditions: in vivo
[4] = biological target: T2, Protein cereblon/Estrogen receptor (Homo sapiens, UniProt P03372+Q96SW2); test: PROTAC activity at CRBN/ERalpha in human MCF7 cells assessed as reduction in ERalpha protein level at 5 nM measured for 4 hrs in presence of cereblon ligand C1 by Western blot analysis; assay type: cell-based
T2 sequence (P03372 whole entry, looked up): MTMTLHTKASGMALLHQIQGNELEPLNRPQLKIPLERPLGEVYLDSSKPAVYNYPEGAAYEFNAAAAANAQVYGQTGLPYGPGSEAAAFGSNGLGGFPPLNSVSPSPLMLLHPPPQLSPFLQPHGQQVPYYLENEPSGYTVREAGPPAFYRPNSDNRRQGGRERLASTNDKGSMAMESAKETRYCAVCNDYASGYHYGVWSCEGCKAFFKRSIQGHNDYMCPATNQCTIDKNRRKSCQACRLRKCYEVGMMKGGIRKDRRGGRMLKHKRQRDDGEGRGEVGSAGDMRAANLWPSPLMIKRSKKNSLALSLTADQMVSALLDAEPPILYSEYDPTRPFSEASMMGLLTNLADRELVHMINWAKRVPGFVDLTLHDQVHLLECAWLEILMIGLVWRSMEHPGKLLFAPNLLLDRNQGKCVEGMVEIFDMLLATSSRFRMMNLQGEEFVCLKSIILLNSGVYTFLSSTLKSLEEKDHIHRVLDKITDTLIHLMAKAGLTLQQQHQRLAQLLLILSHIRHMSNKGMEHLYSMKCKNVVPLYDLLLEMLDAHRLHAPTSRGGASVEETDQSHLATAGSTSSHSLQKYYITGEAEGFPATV
T2 sequence (Q96SW2 whole entry, looked up): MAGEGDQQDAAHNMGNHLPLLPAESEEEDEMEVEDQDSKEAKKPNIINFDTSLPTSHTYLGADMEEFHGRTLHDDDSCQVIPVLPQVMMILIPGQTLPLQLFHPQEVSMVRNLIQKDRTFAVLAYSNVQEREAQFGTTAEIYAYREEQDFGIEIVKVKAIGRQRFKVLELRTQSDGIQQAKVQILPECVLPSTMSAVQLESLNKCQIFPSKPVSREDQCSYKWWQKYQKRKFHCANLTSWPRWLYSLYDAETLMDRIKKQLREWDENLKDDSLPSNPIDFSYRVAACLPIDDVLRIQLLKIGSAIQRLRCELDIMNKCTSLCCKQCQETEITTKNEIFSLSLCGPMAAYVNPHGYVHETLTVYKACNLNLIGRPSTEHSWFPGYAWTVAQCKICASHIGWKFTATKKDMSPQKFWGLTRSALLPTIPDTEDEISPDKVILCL

[5] = biological target: T2, Protein cereblon/Estrogen receptor; test: PROTAC activity at CRBN/ERalpha in human MCF7 cells assessed as reduction in ERalpha protein level at 5 nM measured for 4 hrs in presence of lasofoxifene by Western blot analysis; assay type: cell-based
[6] = biological target: T1, Voltage-gated inwardly rectifying potassium channel KCNH2; test: Inhibition of hERG in HEK293 cells at 10 uM by whole-cell patch clamp assay relative to control; assay type: toxicity, cell-based; conditions: hek293, 10 µM
T47D = test: PROTAC activity at CRBN/ ERalpha Y537S mutant in human T47D cells assessed as reduction in ERalpha protein level at 10 to 100 nM measured at 7 hrs by Western blot analysis; assay type: cell-based; set-up: scale not given: the % may be the effect or the level left; conditions: dose 10-100 nM
[7] = biological target: T2, Protein cereblon/Estrogen receptor; test: PROTAC activity at CRBN/ERalpha in human MCF7 cells assessed as reduction ER level measured for 5 hrs by Western blot analysis; assay type: cell-based; conditions: dose 0.5-500 nM
MCF7 = test: Antitumor activity against human MCF7 cells xenografted in SCID mouse assessed as tumor growth inhibition at 30 mg/kg, po administered for 5 weeks and measured on day 81; assay type: functional; conditions: MCF7, 1944 h, time 81 day, read-out: TGI
[8] = biological target: T2, Protein cereblon/Estrogen receptor; test: In-vivo PROTAC activity at CRBN/ERalpha in SCID mouse xenografted with human MCF7 cells assessed as reduction in ERalpha level in tumor at 30 mg/kg, po administered daily for 3 days and measured after 24 hrs by Western blot analysis; assay type: functional, organism-based; set-up: scale not given: the % may be the effect or the level left; conditions: time 96.0 hrs
[9] = Oral bioavailability in rat at 3 mg/kg measured upto 24 hrs by LC-MS/MS analysis; assay type: ADME, organism-based; conditions: in vivo
[10] = Metabolic stability human liver microsome assessed as half life; assay type: ADME; conditions: microsomes
Cytochrome P450 1A2 = biological target: T3, Cytochrome P450 1A2 (Homo sapiens, UniProt P05177); test: Inhibition of CYP1A2 in human liver microsomes incubated for 5 mins in presence of NADPH by LC-MS/MS analysis; assay type: ADME, Microsome
T3 sequence (P05177 whole entry): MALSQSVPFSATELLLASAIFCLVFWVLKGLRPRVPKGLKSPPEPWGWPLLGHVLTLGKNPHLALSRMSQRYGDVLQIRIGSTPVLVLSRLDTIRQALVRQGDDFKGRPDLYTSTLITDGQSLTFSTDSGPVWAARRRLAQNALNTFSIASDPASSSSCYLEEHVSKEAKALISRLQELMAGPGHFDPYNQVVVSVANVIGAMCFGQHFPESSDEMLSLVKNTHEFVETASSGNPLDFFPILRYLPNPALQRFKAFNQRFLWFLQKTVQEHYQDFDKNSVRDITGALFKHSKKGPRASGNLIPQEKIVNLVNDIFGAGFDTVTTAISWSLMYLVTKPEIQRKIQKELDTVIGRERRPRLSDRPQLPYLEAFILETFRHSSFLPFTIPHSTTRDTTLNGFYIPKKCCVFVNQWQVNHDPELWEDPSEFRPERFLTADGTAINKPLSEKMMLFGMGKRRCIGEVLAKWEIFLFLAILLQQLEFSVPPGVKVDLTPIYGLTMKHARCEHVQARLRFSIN

[11] = biological target: T2, Protein cereblon/Estrogen receptor; test: PROTAC activity at CRBN/ERalpha in human T47D cells assessed as reduction in ERalpha protein level at 10 nM measured at 4 hrs by Western blot analysis; assay type: cell-based
[12] = Drug concentration in SCID mouse plasma at 30 mg/kg, po administered daily for 3 days and measured after 24 hrs by LC-MS/MS analysis; assay type: ADME, organism-based
[13] = AUC (0 to infinity) in dog at 3 mg/kg, po or 1 mg/kg, iv measured upto 24 hrs by LC-MS/MS analysis; assay type: ADME, organism-based, Canis lupus familiaris; conditions: in vivo
Cytochrome P450 2B6 = biological target: T4, Cytochrome P450 2B6 (Homo sapiens, UniProt P20813); test: Inhibition of CYP2B6 in human liver microsomes preincubated for 5 mins followed by NADPH addition and measured after 10 mins by LC-MS/MS analysis; assay type: ADME, Microsome
T4 sequence (P20813 whole entry): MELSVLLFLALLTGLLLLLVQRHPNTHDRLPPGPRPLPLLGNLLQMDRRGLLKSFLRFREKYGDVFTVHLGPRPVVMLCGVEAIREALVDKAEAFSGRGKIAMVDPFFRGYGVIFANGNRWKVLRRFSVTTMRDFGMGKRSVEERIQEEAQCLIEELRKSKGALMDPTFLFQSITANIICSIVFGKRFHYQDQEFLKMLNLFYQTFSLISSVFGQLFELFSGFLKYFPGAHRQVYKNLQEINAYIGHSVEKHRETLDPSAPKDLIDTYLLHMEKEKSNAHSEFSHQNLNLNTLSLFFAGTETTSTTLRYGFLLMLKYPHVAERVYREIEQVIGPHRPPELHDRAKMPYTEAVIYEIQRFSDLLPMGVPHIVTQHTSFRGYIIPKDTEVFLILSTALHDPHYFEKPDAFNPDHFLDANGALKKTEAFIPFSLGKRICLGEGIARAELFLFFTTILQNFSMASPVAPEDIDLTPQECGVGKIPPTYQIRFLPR

[14] = Stability in human plasma assessed as half life; assay type: ADME, cell-free
[15] = Metabolic stability rat liver microsome assessed as half life; assay type: ADME; conditions: microsomes
[16] = Half life in mouse at 3 mg/kg, po or 1 mg/kg, iv measured upto 24 hrs by LC-MS/MS analysis; assay type: ADME, organism-based; conditions: in vivo
[17] = biological target: T2, Protein cereblon/Estrogen receptor; test: PROTAC activity at CRBN/ERalpha in human MCF7 cells assessed as effect on GSPT1 level at 0.5 to 500 nM measured for 5 hrs by Western blot analysis; assay type: cell-based; conditions: dose 0.5-500 nM
[18] = Drug concentration in SCID mouse plasma at 30 mg/kg, po administered once daily for 3 days measured after 24 hrs by LC-MS/MS analysis; assay type: ADME, organism-based
[19] = Cmax in dog at 3 mg/kg, po or 1 mg/kg, iv measured upto 24 hrs by LC-MS/MS analysis; assay type: ADME, organism-based, Canis lupus familiaris; conditions: in vivo
[20] = Drug concentration in SCID mouse tumor at 10 mg/kg, po administered daily for 3 days and measured after 6 hrs by LC-MS/MS analysis; assay type: ADME, organism-based, Neoplasm; conditions: time 3 day, read-out: Ct
[21] = Plasma protein binding in rat; assay type: ADME, cell-free
[22] = Toxicity in SCID mouse implanted with human MCF7 cells ESR1 Y537S mutant assessed as change in body weight at 3 to 30 mg/kg, po administered 5 days a week for 7 weeks; assay type: organism-based; conditions: in vivo, 1176 h, dose 3-30 mg/kg

**Q.** For `O=C1CC[C@H](N2Cc3c(ccc4c3OCC43CCN(C[C@@H]4CCC5(CCN(c6ccc([C@@H]7c8ccc(O)cc8CC[C@@H]7c7ccccc7)cc6)CC5)OC4)CC3)C2=O)C(=O)N1`, which Vdss [1] is on record?
**A.** 5.8 L/kg

**Q.** What about the IC50 [2] of the same molecule?
**A.** > 10 µM

**Q.** What about the Cmax [3] of the same molecule?
**A.** 57.7 ng/mL

**Q.** And the Activity [4]?
**A.** inactive

**Q.** What about the Activity [5] of the same molecule?
**A.** inactive

**Q.** And the “inhibition (INH)” value [6]?
**A.** 43.7%

**Q.** And the Activity (T47D)?
**A.** > 80%

**Q.** And the Activity [7]?
**A.** Dose-dependent-effect

**Q.** What about the inhibition in vivo at 30 mg/kg (MCF7) of the same molecule?
**A.** 110%

**Q.** And the Activity [8]?
**A.** 71%

**Q.** And the F [9]?
**A.** 10%

**Q.** What about the t1/2 [10] of the same molecule?
**A.** > 1 h

**Q.** And the IC50 (Cytochrome P450 1A2)?
**A.** > 10 µM

**Q.** What about the Activity [11] of the same molecule?
**A.** Active

**Q.** What about the concentration at 96 h [12] of the same molecule?
**A.** 50 ng/mL

**Q.** And the AUC(0-inf) [13]?
**A.** 15500 ng·h/mL

**Q.** What about the IC50 (Cytochrome P450 2B6) of the same molecule?
**A.** 2.5 µM

**Q.** And the t1/2 [14]?
**A.** > 4 h

**Q.** What about the t1/2 [15] of the same molecule?
**A.** > 1 h

**Q.** What about the t1/2 [16] of the same molecule?
**A.** 13.3 h

**Q.** What about the Activity [17] of the same molecule?
**A.** Minimal_effect

**Q.** What about the concentration at 96 h [18] of the same molecule?
**A.** 72 ng/mL

**Q.** What about the Cmax [19] of the same molecule?
**A.** 469.4 ng/mL

**Q.** And the concentration at 72 h [20]?
**A.** 975 ng/mL

**Q.** And the PPB [21]?
**A.** 95.7%

**Q.** And the Activity [22]?
**A.** Non-toxic
